Measured values taken from US11579147B2, “Use of VNN1 as a biomarker and a therapeutic target in sarcomas” (INSERM (Institut National de la Santé et de la Recherche …, priority 2017, dated 2023).
Entries after “also recorded” stand apart in the source; their conditions may differ.

Key:
[1] = test system: myofibroblast cell lines (J2A, H1 or I1); assay: in vitro growth of Ras-transfected myofibroblast cell lines; assay type: cell-based, mouse; details: data not shown
Text: Given the slow rate of tumor development and the rare emergence of STS in Vnn1+/+ mice, we developed new transplantable STS models. The different tumors derived from three independent myofibroblast cell lines (J2A, H1 or I1) were subcutaneously grafted in Nude mice. […] Since pantetheinase activity releases pantothenate and cysteamine in vivo, we tested the effect of these compounds on in vitro and in vivo growth.

[2] = test system: various metabolites analyzed by LC-MS; assay: LC-MS analysis of tumor metabolites; assay type: in vivo; details: administration to tumor-bearing mice
Text: (§1) Since pantetheinase hydrolyses pantetheine into pantothenate and cysteamine, we searched for more specific actions. We first focused on pantothenate which could be detected by LC-MS analysis. […] Accordingly, we found some significant variations in the levels of various metabolites involved in the regulation of the TCA cycle.

[3] = test system: CoA levels; assay: coenzyme A levels in tumors; assay type: in vivo; details: administration to mice bearing R tumors
Text: as §1

[4] = test system: GSH levels; assay: GSH levels in tumor tissue extracts; assay type: in vivo; details: administration to tumor-bearing mice, data not shown
Text: as §1

[5] = test system: collagen I or caveolin I genes; assay: qRT-PCR of differentiation genes in enriched tumor cells depleted of CD45+ cells; assay type: in vivo, mice; details: cysteamine-treated R tumor cells
Text: We then performed a similar analysis using RNA extracted from enriched R, cysteamine-treated R and VR tumor cells depleted of CD45+ hematopoietic cells. […] Therefore, Vnn1 expression is associated with a differentiated grade of tumors which is not recapitulated by CEA administration.

[6] = test system: Ras expressing tumors (R); assay: growth of tumors subcutaneously grafted in Nude mice; assay type: in vivo; details: administered to grafted mice, FIG. 4
Text: The different tumors derived from three independent myofibroblast cell lines (J2A, H1 or I1) were subcutaneously grafted in Nude mice. […] Since pantetheinase activity releases pantothenate and cysteamine in vivo, we tested the effect of these compounds on in vitro and in vivo growth.

SMILES	growth of cell lines in vitro [1]	impact on the various metabolites analyzed by LC-MS [2]	CoA levels in tumors [3]	GSH levels in tissue extracts [4]	expression of collagen I or caveolin I genes [5]	tumor growth in grafted mice [6]
CC(C)(CO)[C@@H](O)C(=O)NCCC(=O)O [pantothenate, 3-[(2R)-(2,4-Dihydroxy-3,3-dimethylbutanoyl)amino]propanoic acid]	no effect					
NCCS [cysteamine, 2-aminoethanethiol]	reduced the growth of all cell lines	could not detect a significant impact	only moderately enhanced	reduction in GSH levels	not able to induce the expression	inhibits tumor growth; also recorded: reduced the growth
